Where no end group is shown, it is not given here. The star is where a group is joined. Biotin = O=C1N[C@H]2[C@H](CS[C@H]2CCCCC(=O)*)N1
What was measured:
[1] = tested on: systemic sclerosis pulmonary fibrosis lung tissues; assay: MMP-1 induction in systemic sclerosis pulmonary fibrosis lung tissues in organ culture; assay type: cell-based, human; conditions: 10 μg/ml, TGFbeta, 120 hrs
Protocol: Systemic sclerosis pulmonary fibrosis lung tissues were divided into equal size cores. Lung tissues in organ culture were treated with different peptide fragments derived from endostatin at a final concentration of 10 μg/ml in the presence of TGFbeta for 120 hrs. The induction of matrix metalloprotease (MMP)-1 (also known as collagenase) in media conditioned by the lung tissues was examined as a measure of the ability of the peptide to reduce fibrosis and promote extracellular matrix degradation.

[2] = tested on: mc-38 colon adenocarcinoma tumor cells; assay: mc-38 colon adenocarcinoma tumor growth in mice, oral gavage; assay type: in vivo; conditions: 100 μg/mouse oral gavage twice/week; for mean rate of increase in the tumor volume at day 21: PBS control 151.1 mm^3 per day; for mean tumor volume at day 21 (model-based estimate): PBS control 1492.1 mm^3
Protocol: (§1) For each of the experiments, descriptive statistics (means and standard deviations) for tumor volumes were calculated over time for each experimental group (i.e. Experiment 1: Control vs. BioE4 (FIG. 1); Experiment 2: PBS, Bio96, and BioE4-03 (FIG. 5)). Since tumor growth tends to be curvilinear, general linear mixed models (GLMMs) were created to estimate treatment-specific growth curves over time and to make comparisons between the peptide treatments and control. Separate GLMMs were constructed for each experiment, and each GLMM included random effects for each mouse, to control for the fact that the repeated volume measurements within a given mouse were correlated with one another. Tumor volume served as the dependent variable in each model, while time (in days), […], treatment x time, and treatment x time^2 were included as independent variables. Using these models, the estimated mean tumor volumes at specific selected time points and the mean rate of change in the tumor volumes at specific selected time points were compared. If a mouse's tumor grew too large, it was sacrificed; however, all tumor volumes measured prior to sacrifice were included in the modeling process. SAS v9.4 (SAS Institute, Cary, NC) was used for all analyses. All hypothesis tests were 2-sided, and p-values <0.05 were considered statistically significant.
sMIC tolerant transgenic (MB481 strain) mice (Liu et al, Perturbation of NK cell peripheral homeostasis accelerates prostate carcinoma metastasis. J. Clin. Invest. 123:4410, 2013) were injected with 1×10^5 mc-38 colon adenocarcinoma tumor cells via subcutaneous injection When tumor size reached approximately 75 mm^3, treatment was started. start treatment at four group. Bio96 100 μg/mouse, BioE4-03 100 μg/mouse, were given via oral gavage in a volume of 100 μl. PBS (100 μl) was given as a vehicle control. Peptides and vehicle were administered twice/week. Tumor volume was measured 3 times per week.
Direct comparisons were made between the PBS control and Bio96 and between PBS and BioE4-03 with respect to the mean tumor volumes at Day 21 and the mean rate of change in the tumor volumes at Day 21 (FIG. 5 through FIG. 7).

tumors = assay: Histologic analysis of tumors (H & E, Masson Trichrome); assay type: in vivo, mouse; conditions: for collagen bundles in the tumors (Masson Trichrome stain): compared to tumors from vehicle treated mice
Protocol: Histological analysis of tumors treated with vehicle alone, or with BioE4-03 or Bio96 peptides was performed.

skin tissues from donors = assay: Gene expression in donor skin tissues with TGFbeta-induced fibrosis; assay type: cell-based, human; conditions: skin tissue
Text: BioE4-03 further reduces Col1A1 and fibronectin (FN) gene expression in skin tissues from donors in which fibrosis was induced with TGFbeta (FIG. 25).

[3] = tested on: human lung adenocarcinoma cells (A549); assay: IL-6 mRNA by qPCR in A549 cells; assay type: cell-based; conditions: A549, 48 hours, relative to vehicle controls
Protocol: (§2) IL-6 mRNA levels were measured via qPCR in human lung adenocarcinoma cells (A549) treated for 48 hours with BioE4-03 peptide. […] For comparison, a parallel experiment was done using non-biotinylated E4-03. […] Additionally, IL-6 protein levels in the supernatant of A549 cells were measured by ELISA after 72 hours of treatment with E4-03 peptide.

[4] = tested on: A549 cells (human lung adenocarcinoma cells); assay: Gene expression in A549 cells by real-time PCR; assay type: cell-based; conditions: A549, 10 μg/ml, 48 hours
Protocol: (§3) The expression of several genes implicated in tumorigenesis, angiogenesis and cancer stem cell renewal was measured in a variety of tumor types and organs.
Tumor cells were treated with 10 μg/ml BioE4-03 for 48 hours. RNA was extracted and analyzed by real-time PCR. N=6-8 independent experiments. Statistical analysis was done using the paired t-test.

[5] = tested on: lung tissues of normal donors; assay: Lung tissues of normal donors in organ culture after induction of fibrosis with TGFbeta; assay type: cell-based, human; conditions: normal donor lung tissue; for hydroxyproline levels: fibrosis induced with TGFbeta
[6] = tested on: HCT116T cells (human colon carcinoma cells); assay: Gene expression in HCT116T cells by real-time PCR; assay type: cell-based; conditions: 10 μg/ml, 48 hours
Protocol: as §3
Tumor cells were treated with 10 μg/ml BioE4-03 for 48 hours. RNA was extracted and analyzed by real-time PCR. N=3-4 independent experiments (except for uPAR where n=2).

[7] = tested on: fibroblasts from lungs of patients with SSc; assay: Gene expression in fibroblasts from lungs of patients with systemic sclerosis (SSc); assay type: cell-based, human; conditions: SSc lung fibroblasts
Protocol: […] RNA was extracted and levels of alpha smooth muscle actin (SMA) measured by qRT-PCR.
SSc fibroblasts were treated with 10 μg/ml BioE4-03 for 72 hours. RNA was extracted and used to measure SMA and Collagen 1A2.

[8] = tested on: fibroblasts from lungs of patients with IPF; assay: Gene expression in fibroblasts from lungs of patients with idiopathic pulmonary fibrosis (IPF); assay type: cell-based, human; conditions: IPF lung fibroblasts
[9] = tested on: lung tissues of patients with SSc; assay: Hydroxyproline in lung tissues of patients with SSc in organ culture; assay type: cell-based, human; conditions: SSc lung tissue, organ culture 72 hours
[10] = tested on: lung tissues of patients with IPF; assay: Hydroxyproline in lung tissues of patients with IPF in organ culture; assay type: cell-based, human; conditions: IPF lung tissue, organ culture 72 hours
normal lung fibroblasts [11] = assay: Fibronectin in supernatants of TGFbeta-treated normal lung fibroblasts; assay type: cell-based, human; conditions: 10 μg/ml to 80 μg/ml, 72 hours
Protocol: Normal lung fibroblasts were treated with TGFbeta without or with increasing concentrations for 96-87. Supernatants were assessed for fibronectin levels after 72 hours of treatment. 96-87 had no effect on TGFbeta-induced FN production, even with increasing concentration from 10 μg/ml to 80 μg/ml (FIG. 18).

[12] = tested on: fibroblasts from lung tissues of normal donors; assay: Alpha smooth muscle actin qRT-PCR in TGFbeta-treated fibroblasts from lung tissues of normal donors; assay type: cell-based, human; conditions: 48 hours
Protocol: Fibroblasts were treated with TGFbeta with or without peptide Bio96-17 for 48 hours. RNA was extracted and levels of alpha smooth muscle actin (SMA) measured by qRT-PCR.

[13] = tested on: human lung adenocarcinoma cells (A549); assay: IL-6 protein by ELISA in supernatant of A549 cells; assay type: cell-based; conditions: A549, 72 hours, relative to vehicle controls
Protocol: as §2

normal lung fibroblasts [14] = assay: Extracellular matrix proteins in TGFbeta-treated normal lung fibroblasts, immunoblotting; assay type: cell-based, human; conditions: 10 μg/ml peptide
Protocol: Normal lung fibroblasts were treated with vehicle as control (VC) or TGFbeta (T) in the presence or absence of 10 μg/ml of various peptide fragments. The extracellular matrix proteins, Collagen 1A1 and fibronectin (FN) were assessed using immunoblotting.

[15] = tested on: TRAMP C-2 mouse prostate tumor cells; conditions: C57BL6 mice, 50 μg/dose oral gavage twice per week, day 15, vs water vehicle
Protocol: as §1

## SYCETWRTEAPSATGQASSLL (C-terminal endostatin-derived peptide 91-96)
[1]
  MMP-1 production in media conditioned by the lung tissues: no effect

## Biotin-NH2-ATGQASSLL-CONH2 (Biotin-ATGQASSLL-NH2; SMILES CC(C)C[C@H](NC(=O)[C@H](CC(C)C)NC(=O)[C@H](CO)NC(=O)[C@H](CO)NC(=O)[C@H](C)NC(=O)[C@H](CCC(N)=O)NC(=O)CNC(=O)[C@@H](NC(=O)[C@H](C)NC(=O)CCCC[C@@H]1SC[C@@H]2NC(=O)N[C@@H]21)[C@@H](C)O)C(N)=O) [Bio96]
[2]
  mean rate of increase in the tumor volume at day 21: 90.6 mm^3 per day
  mean tumor volume at day 21 (model-based estimate): 871.4 mm^3
tumors
  collagen bundles in the tumors (Masson Trichrome stain): thinner collagen bundles
tumors; tumors from treated mice
  tumor cell arrangement (H & E): looser cell arrangement

## Biotin-NH2-SYCETWRTEAPSATGQASSLLGGRLLGQSAASCHHA-CONH2 [BioE4-03]
Skin tissues from donors
  Col1A1 gene expression: reduces
  fibronectin (FN) gene expression: reduces
[3]
  expression of IL-6 mRNA: significantly reduced
[4]
  Expression of IL-6: significantly reduced
  Expression of LOX: significantly reduced
  Expression of PAI-I: significantly reduced
  Expression of PDGF-A: significantly reduced
  Expression of VEGF-A: significantly reduced
  Expression of uPA: significantly reduced
  Expression of uPAR: significantly reduced
[5]
  hydroxyproline levels: significant reductions
[6]
  Expression of IL-6: significantly reduced
  Expression of PAI-I: significantly reduced
  Expression of PDGF-A: significantly reduced
  Expression of VEGF-A: significantly reduced
  Expression of uPA: significantly reduced
[6]; n=2
  Expression of uPAR: significantly reduced
[7]; 10 μg/ml, 72 hours
  Coll1A2 levels: significant reduction
  SMA levels: significant reduction
[2]
  mean rate of increase in the tumor volume at day 21: 76.0 mm^3 per day
  mean tumor volume at day 21 (model-based estimate): 767.7 mm^3
[8]
  Coll1A2 levels: trend towards decrease
  SMA levels: trend towards decrease
[9]
  hydroxyproline levels: significant reduction
[10]
  hydroxyproline levels: significant reduction
tumors
  collagen bundles in the tumors (Masson Trichrome stain): thinner collagen bundles
tumors; tumors from treated mice
  tumor cell arrangement (H & E): looser cell arrangement
  tumor necrosis (H & E): notable necrosis

## ATGQASSLLGGRLLGQ (C-terminal endostatin-derived peptide 96-87)
Normal lung fibroblasts [11]
  TGFbeta-induced FN production (supernatants): no effect

## Bio96-17: SEQ ID NO:4 being biotinylated at its N-terminus (Biotin-ATGQASSLLGGRLLGQSAASCHHA; not fully specified (C-terminus))
[5]; TGFbeta, cultured 120 hours
  secreted Col1A1 protein levels: significant reduction
[5]
  hydroxyproline levels: significant reductions
[7]; Bio96-17 experiment
  Coll1A2 levels: significant reduction
  SMA levels: significant reduction
[12]
  TGFbeta-induced SMA levels (qRT-PCR): significant reduction

## SYCETWRTEAPSATGQASSLLGGRLLGQSAASCHHA (C-terminal endostatin-derived peptide E4-03)
[13]
  IL-6 protein levels in the supernatant: significantly reduced
[3]
  expression of IL-6 mRNA: reduced
Normal lung fibroblasts [14]
  Col1A1 levels induced by TGFbeta (immunoblotting): effective at reducing
  FN levels induced by TGFbeta (immunoblotting): effective at reducing
[1]
  MMP-1 production in media conditioned by the lung tissues: induced MMP-1 production

## ATGQASSLLGGRLLGQSAASCHHA (C-terminal endostatin-derived peptide 96-17)
Normal lung fibroblasts [14]
  Col1A1 levels induced by TGFbeta (immunoblotting): effective at reducing
  FN levels induced by TGFbeta (immunoblotting): effective at reducing
[1]
  MMP-1 production in media conditioned by the lung tissues: induced MMP-1 production

## Biotin-NH2-SYCETWRTEAPSATGQASSLLGGRLLGQSAASCHHAYIVLCIENSFMT-CONH2 [BioE4]
[15]
  mean rate of increase in the tumor volume on day 15, Control vs. peptide group: significantly (p=0.02) greater in the Control group
  mean tumor volume at day 15 (model-based estimate), Control vs. peptide group: significantly (p=0.0001) greater in the Control group

## SYCETWRTEAPSATGQASSLLGGRLLGQ (C-terminal endostatin-derived peptide 91-97) [91-87]
[1]
  MMP-1 production in media conditioned by the lung tissues: no effect
